Where two headings read alike, the source gives them in different places.
Tests used:
[1] = target: T1, SGLT2 (Homo sapiens, UniProt P31639); experiment: Mode of inhibition on SGLT2 (Dixon plots) in CHO-SGLT2 cells; format: cell-based; conditions: 1, 2.5, 5, 50 μM [14C]AMG
T1 construct: host or cells: CHO
T1 sequence (P31639 1-672): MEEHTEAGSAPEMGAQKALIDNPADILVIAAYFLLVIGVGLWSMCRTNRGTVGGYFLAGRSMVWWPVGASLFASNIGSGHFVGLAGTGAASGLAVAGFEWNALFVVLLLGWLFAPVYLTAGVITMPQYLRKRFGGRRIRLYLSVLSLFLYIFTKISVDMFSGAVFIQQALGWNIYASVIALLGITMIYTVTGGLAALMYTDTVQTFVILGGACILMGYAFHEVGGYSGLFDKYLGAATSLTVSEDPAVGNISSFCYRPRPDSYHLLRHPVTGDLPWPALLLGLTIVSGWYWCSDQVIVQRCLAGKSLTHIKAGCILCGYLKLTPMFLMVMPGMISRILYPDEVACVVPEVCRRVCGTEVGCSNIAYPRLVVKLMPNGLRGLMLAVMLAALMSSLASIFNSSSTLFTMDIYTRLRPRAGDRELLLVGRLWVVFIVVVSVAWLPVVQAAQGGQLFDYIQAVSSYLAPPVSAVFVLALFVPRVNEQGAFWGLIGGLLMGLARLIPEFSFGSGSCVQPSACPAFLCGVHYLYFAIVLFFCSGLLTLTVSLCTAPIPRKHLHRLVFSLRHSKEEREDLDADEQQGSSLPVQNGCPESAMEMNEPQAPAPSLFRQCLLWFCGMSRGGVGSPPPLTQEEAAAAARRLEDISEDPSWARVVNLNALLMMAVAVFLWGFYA
Experimental: The radioactivity of the cell lysate was measured following the same sample preparation method described above.

[2] = target: T1, SGLT2; experiment: Time dependency of SGLT2 inhibition (preincubation) in CHO-SGLT2 cells; format: cell-based; conditions: for IC50: 10 μM [14C]AMG, 2 h, CHO-SGLT2; for Time dependency of SGLT2 inhibition: pretreatment 0, 1, 2 h
Experimental: After 2 h of incubation, the radioactivity of the cell lysate was measured following the same sample preparation method described above.

[3] = target: T1, SGLT2; experiment: Recovery of SGLT2 activity after washout following 24 h exposure in CHO-SGLT2 cells; format: cell-based
Experimental: After 24 h, the RPMI1640 medium was replaced with pre-warmed fresh RPMI1640 medium and incubated for 1, 2, 3, 5, and 6 h, and proceeded another pre-incubation with Na^+-free buffer for 1 h. Then, after replacing Na^+-free buffer with Na^+ gradient buffer containing 10 µM [^14C]AMG, the uptake of [^14C]AMG into the CHO-SGLT2 cells was measured for 2 h. After 2 h of incubation, the radioactivity of the cell lysate was measured following the same sample preparation method described above.

[4] = tested on: T2, OAT1; experiment: Substrate specificity / uptake in HEK293-OAT1 cells; format: in vitro ADME; conditions: for Substrate for OAT1: HEK293-OAT1 vs mock, ± 20 μM probenecid
T2 construct: host or cells: HEK293
Experimental: HEK293-mock cells and HEK293 cells overexpressing OAT1 and OAT3 transporters (HEK293-OAT1 and -OAT3, respectively) were seeded in poly-D-lysine-coated 24-well plates at a density of 4 × 10^5 cells/well and cultured for 24 h in DMEM supplemented with 10% FBS and 5 mM non-essential amino acids at 37 °C in 8% CO2 condition.
For each experiment, the growth medium was discarded after 24 h, and the attached cells were washed with pre-warmed HBSS and incubated with pre-warmed HBSS for 20 min at 37 °C. To confirm the functionality of OAT1 and OAT3, we measured the uptake of 0.1 µM [^3H]PAH and 0.1 µM [^3H]ES, representative substrates for OAT1 and OAT3, respectively, into in the HEK293-mock cells and HEK293-OAT1 and -OAT3 cells, respectively, for 5 min in the presence and absence of 20 µM probenecid, a typical inhibitor for both OAT1 and OAT3 [8, 9]. The cells were then washed three times with 500 μL of ice-cold HBSS immediately after placing the plates on ice. Subsequently, cells were lysed with 10% sodium dodecyl sulfate and mixed with Optiphase cocktail solution overnight. The radioactivity of the cell lysate was measured using a liquid scintillation counter (Microbeta 2; Perkin Elmer Inc., Boston, MA, USA).
For the concentration dependency in the uptake of DWP16001, the uptake of DWP16001 in a concentration range of 0.5–50 μM dissolved in HBSS was measured for 5 min at 37 °C in the mock cells and HEK293-OAT1 and -OAT3 cells, respectively. After 5 min, the cells were washed three times with 500 μL of ice-cold HBSS immediately after placing the plates on ice.
In the concentration-dependent uptake studies, the transporter-mediated uptake of DWP16001 was calculated by the subtraction of the transport rates of DWP16001 into the mock cells from those of the HEK293-OAT1 and -OAT3 cells. Kinetic parameters for the OAT1- and OAT3-mediated transport of DWP16001 were determined using the Michaelis-Menten equation [V = Vmax⋅S/(Km + S)] [10].

[5] = without preincubation, read-out: IC50 (0 h)
[6] = HEK293-OAT1 minus mock, 0.5–50 μM, 5 min

| SMILES | Mode of inhibition on SGLT2 [1] | IC50 ([2]; IC50 (1 h), preincubation 1 h) [nM] | IC50 ([2]; IC50 (2 h), preincubation 2 h) [nM] | Time dependency of SGLT2 inhibition [2] | IC50 [2, 5] [nM] | Time after drug removal at which SGLT2 activity had not recovered ([3]; 200 nM) [h] | Increase of uptake in HEK293-OAT1 cells compared with mock cells ([4]; 2 μM, 5 min) | Substrate for OAT1 ([4]; 2 μM, 5 min) | OAT1-mediated uptake: CLint [4, 6] [µL/min] | OAT1-mediated uptake: Vmax [4, 6] [pmol/min] | Km at 5 min ([4]; human, HEK293-OAT1 minus mock, 0.5–50 μM, read-out: OAT1-mediated uptake: Km) [µM] | Time after drug removal to recovery of SGLT2 activity to the control level ([3]; 0.2–200 nM) [h] |
| --- | --- | --- | --- | --- | --- | --- | --- | --- | --- | --- | --- | --- |
| OC[C@H]1O[C@@H](c2cc(Cc3ccc(C4CC4)cc3)c(Cl)c3c2CCO3)[C@H](O)[C@@H](O)[C@@H]1O [DWP16001] | reversible and competitive | 0.7 | 0.8 | time-independent | 0.7 | 8 | two-fold | a substrate | 3.1 | 119.2 | 38 | – |
| OC[C@H]1O[C@@H](c2ccc(F)c(Cc3cc4ccccc4s3)c2)[C@H](O)[C@@H](O)[C@@H]1O [Ipragliflozin, ipragliflozin] | reversible and competitive | 11 | 9.9 | time-independent | 10.6 | – | – | not substrates | – | – | – | 4 |

From paper PMC7151106 (Pharmaceutics, 2020)
